Assay [1] relates to Human C3-[…]. Nature of the assay: C3 deposition assay, human serum on mannan-coated plates. Type of assay: biochemical. The protocol:
3. C3 Deposition Assay (Human, Rat, Mouse, Dog, Mini-Pig)
The C3 deposition assay was conducted essentially as described (reference). Multi well plates (Greiner-Nunc 384 Maxi Sorp #464718) were coated over night with Mannan from Saccharomyces cerevisiae (Sigma M7504, 10 μg/mL in 0.05 M carbonate-bicarbonate buffer, pH 9.6) at 4° C. Wells were washed three times with TBS and subsequently incubated for 2 hours with 50 μL of 1% bovine serum albumin (BSA) in Tris-buffered saline (TBS) at 37° C. in order to block non-specific binding. After this step and each of the following incubation steps wells were washed three times with C3 wash buffer (TBS; 0.05% Tween 20; 5 mM CaCl2). […] When appropriately developed the color reaction was stopped by addition of 25 μL of stop solution (Sigma S5814) and quantified on a photometer by measuring absorption at a wavelength of 450 nm. Antibodies were diluted in C3 wash buffer supplemented with 0.5% BSA.

The target of assay [2] is T1, human MASP1 (Homo sapiens, UniProt P48740).
T1 construct: Ig-kappa secretion signal (N, cleaved yes); made in house; host or cells: HEK293 (ATCC No. CRL-1573)
T1 sequence (P48740 297-448): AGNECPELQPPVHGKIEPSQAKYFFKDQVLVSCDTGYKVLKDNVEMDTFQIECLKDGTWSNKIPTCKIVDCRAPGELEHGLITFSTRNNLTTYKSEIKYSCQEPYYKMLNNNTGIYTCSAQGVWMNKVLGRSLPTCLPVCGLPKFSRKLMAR
T1 sequence (P48740 449-699): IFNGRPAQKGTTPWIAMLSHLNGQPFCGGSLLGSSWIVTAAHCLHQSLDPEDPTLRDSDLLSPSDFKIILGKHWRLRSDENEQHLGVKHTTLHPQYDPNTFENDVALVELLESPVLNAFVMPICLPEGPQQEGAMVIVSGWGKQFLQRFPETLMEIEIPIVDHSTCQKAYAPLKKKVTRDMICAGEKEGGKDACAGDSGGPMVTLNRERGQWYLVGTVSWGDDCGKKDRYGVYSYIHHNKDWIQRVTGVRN
Put plainly: Biochemical human MASP1 assay (FRET substrate). The settings on record: average IC50. The text has this:
(§1) 2.1 Recombinant Expression and Protein Production of Recombinant Human MASP1 and MASP2 Active Proteases.
(§2) The MASP1 or MASP2 expression vectors were transfected into the HEK293 (ATCC No. CRL-1573) cell line using Lipofectamine LTX® Reagent (Thermo-Fischer), as described by the manufacturer. […] The MASP1 and MASP2 proteins were purified from the conditioned media by affinity chromatography on Ni-NTA Superflow resin (Qiagen) as described by the manufacturer.
2.2 Biochemical Human MASP1 Assay
(§3) Recombinant human MASP1 enzyme produced in the HEK 293 cells was diluted in the reaction buffer (50 mM HEPES pH 8,0; 100 mM NaCl; 0.01% CHAPS; 0.5 mM Gluthathione) to the concentration of 20 nM and 25 μl was transferred into each single well of 384-well white microtiter plate (Greiner Bio One 781075). 1 μl of the inhibitor compound solution (dissolved in DMSO, at the corresponding concentration) or pure DMSO as a control was added to the same wells. […] The microtiter plate was incubated for 60-120 min at the temperature of 32 C. The increase of fluorescence intensity was measured in appropriate fluorescence plate reader (e.g. TECAN Ultra) using excitation wavelength of 320 nm and emission wavelength of 420 nm. IC50 values were calculated from percentage of inhibition of human MASP1 activity as a function of test compound concentration.

The target of assay [3] is T2, human MASP2 (Homo sapiens, UniProt O00187).
T2 construct: Ig-kappa secretion signal (N, cleaved yes); made in house; host or cells: HEK293 (ATCC No. CRL-1573)
Put plainly: Biochemical human MASP2 assay (FRET substrate). The settings on record: average IC50.
Source text: as §1, §2
2.3 Biochemical Human MASP2 Assay
as §3, with “MASP2” for “MASP1”, “340” for “320”, “490” for “420”

Assay [4] has as its target T3, rat MASP1 (Rattus norvegicus, UniProt Q8CHN8).
T3 construct: Ig-kappa secretion signal (N, cleaved yes); made in house; host or cells: HEK293 (ATCC No. CRL-1573)
T3 sequence (Q8CHN8 302-453 limits assumed): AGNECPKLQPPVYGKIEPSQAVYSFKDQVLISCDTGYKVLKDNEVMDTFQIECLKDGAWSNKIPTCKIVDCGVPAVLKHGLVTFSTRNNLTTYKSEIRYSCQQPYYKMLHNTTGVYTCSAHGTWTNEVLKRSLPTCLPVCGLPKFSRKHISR
T3 sequence (Q8CHN8 454-704 limits assumed): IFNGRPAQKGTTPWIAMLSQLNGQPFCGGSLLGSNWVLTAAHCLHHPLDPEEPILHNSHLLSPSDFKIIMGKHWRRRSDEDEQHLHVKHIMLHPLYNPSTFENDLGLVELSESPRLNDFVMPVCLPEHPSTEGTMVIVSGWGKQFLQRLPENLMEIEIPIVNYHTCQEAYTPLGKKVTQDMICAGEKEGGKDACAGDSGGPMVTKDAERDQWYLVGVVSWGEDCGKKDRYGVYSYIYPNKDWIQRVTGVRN
Nature of the assay: Biochemical rat MASP1 assay (FRET substrate). The conditions noted are these: average IC50; recombinant rat MASP1, FRET substrate. The source says:
4. Biochemical Rat MASP-1 and MASP-2 Assay
4.1 Recombinant Expression and Protein Production of Recombinant Human and Rat MASP1 and MASP2 Active Proteases.
A truncated cDNA sequence of rat MASP1 encoding the fragment corresponding to the amino acids 302-704 with an C-terminal His Tag and N-terminal Ig-kappa secretion signal (SEQ ID No: 4) was subcloned into the mammalian expression vector pcDNA3.1 (Invitrogen).
The MASP1 or MASP2 expression vectors were transfected into the HEK293 (ATCC No. CRL-1573) cell line using Lipofectamine LTX® Reagent (Thermo-Fischer), as described by the manufacturer. The mature form of the recombinant rat MASP1 and MASP2 proteases were secreted into the culture medium. The MASP1 and MASP2 proteins were purified from the conditioned media by affinity chromatography on Ni-NTA Superflow resin (Qiagen) as described by the manufacturer.
4.2 Biochemical Rat MASP1 Assay.
Recombinant rat MASP1 enzyme produced in the HEK 293 cells was diluted in the reaction buffer (50 mM HEPES pH 8,0; 100 mM NaCl; 0.01% CHAPS; 0.5 mM Gluthathione) to the concentration of 4 nM and 25 μl was transferred into each single well of 384-well white microtiter plate (Greiner Bio One 781075). 1 μl of the inhibitor compound solution (dissolved in DMSO, at the corresponding concentration) or pure DMSO as a control was added to the same wells. The enzymatic reaction was initiated by addition of 25 μl of 40 μM solution of the FRET substrate Dabcyl-[…]-Glu(Edans)-NH2 (SEQ ID NO: 8); (Dabcyl—4-((4-(dimethylamino)phenyl)azo)benzoic acid; Edans—5-[(2-Aminoethyl) amino]naphthalene-1-sulfonyl; custom synthesis by Jerini Peptide Technologies, Berlin) in the reaction buffer. The microtiter plate was incubated for 60-120 min at the temperature of 32 C. The increase of fluorescence intensity was measured in appropriate fluorescence plate reader (e.g. TECAN Ultra) using excitation wavelength of 340 nm and emission wavelength of 490 nm. IC50 values were calculated from percentage of inhibition of rat […] activity as a function of test compound concentration.

The mark [5] stands for this setting: average IC50, read-out: Human C3-DEPOSITION SERUM IC50.

Like-named read-outs stand apart in the source and are kept apart here. Bridge positions count the residues as written; N and C are the ends. Square brackets hold non-standard residues; d marks the D form. Peptide text beside a SMILES is read from it. Pro(4-spirocPr) = O=C(O)[C@@H]1CC2(CC2)CN1; Oic = O=C(O)[C@@H]1C[C@@H]2CCCC[C@@H]2N1; tBuAla = CC(C)(C)C[C@H](N)C(=O)O; Pen = CC(C)(S)[C@H](N)C(=O)O; ΔPro = O=C(O)[C@@H]1C=CCN1; Sar = CNCC(=O)O

T2 sequence (O00187 297-444): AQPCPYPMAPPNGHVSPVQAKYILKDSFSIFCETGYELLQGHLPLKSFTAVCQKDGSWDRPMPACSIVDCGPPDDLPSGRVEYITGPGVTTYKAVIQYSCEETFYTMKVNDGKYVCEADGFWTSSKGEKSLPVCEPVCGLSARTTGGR
T2 sequence (O00187 445-686): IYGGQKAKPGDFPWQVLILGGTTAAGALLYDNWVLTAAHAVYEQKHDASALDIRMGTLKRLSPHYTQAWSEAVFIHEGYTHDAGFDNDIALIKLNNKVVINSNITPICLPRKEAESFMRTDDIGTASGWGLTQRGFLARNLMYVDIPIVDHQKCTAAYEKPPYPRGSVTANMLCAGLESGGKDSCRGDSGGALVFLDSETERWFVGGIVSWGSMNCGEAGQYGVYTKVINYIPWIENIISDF

For the molecule “((N-Me)G)-IC+SRSLP-(Oic)-I-(Pen)+IPD-NH2 [Example 165]”, in assay [1] (setting [5]), the IC50 is 36 nM.
As to `CC[C@H](C)[C@H](NC(=O)[C@@H]1CSSC[C@H](NC(=O)[C@@H](NC(=O)[C@@H](N)C2CCOCC2)[C@@H](C)CC)C(=O)N[C@@H](CO)C(=O)N[C@@H](CCCNC(=N)N)C(=O)N[C@@H](CO)C(=O)N[C@@H](CC(C)C)C(=O)N2CCC[C@H]2C(=O)N2[C@@H](C[C@@H]3CCCC[C@@H]32)C(=O)N[C@@H]([C@@H](C)CC)C(=O)N1)C(=O)O` (single isomer, unassigned) [Example 184], the IC50 turned out to be 4.7 nM in assay [2]; 43 nM in assay [1] (average IC50, read-out: Human C3-[…] IC50); 200 nM in assay [3].
With “((N-Me)G)-IC+SRSLP-(Oic)-I-(Pen)+I-((5-Azaspiro[2.4]heptane-1-carboxylic acid)OH [Example 164]”, the IC50 in assay [1] (setting [5]) came out at 81.6 nM.
Same read-out and setting: in the case of “AIC+SRS-((tBu)A)-PPI-((N-Me)C)+IPD-NH2 (HCl Salt) [Example 30]” it was 36.1 nM; in that of “AIC+SRSLP-(Oic)-I-(Pen)+IPN-OH [Example 418]”, 53.9 nM.
Same read-out and setting: in the case of “IC+SRSLP-(Oic)-I-(Pen)+IPD-OH [Example 347]” it was 151 nM.
Turning to `CC[C@H](C)[C@H](NC(=O)[C@H](C)N)C(=O)N[C@H]1CSSC(C)(C)[C@@H](C(=O)N[C@H](C(=O)N2CCC[C@H]2C(=O)N[C@@H](CC(=O)O)C(N)=O)[C@@H](C)CC)NC(=O)[C@H]([C@@H](C)CC)NC(=O)[C@@H]2CC3(CC3)CN2C(=O)[C@@H]2CCCN2C(=O)[C@H](CC(C)(C)C)NC(=O)[C@H](CO)NC(=O)[C@H](CCCNC(=N)N)NC(=O)[C@H](CO)NC1=O` [Example 45, AI-C+SRS-((tBu)A)-P-((6S)-5-Azaspiro[2.4]heptane-6-carboxylic acid)-I(Pen)+IPD-NH2] (H-AICSRS[tBuAla]P[Pro(4-spirocPr)]I[Pen]IPD-NH2; disulfide 3-11), the IC50 in assay [2] is 1.83 nM; in assay [4], 40 nM; in assay [1] (setting [5]) it was 18.6 nM; in assay [3] it was 24.5 nM.
As to `CC[C@H](C)[C@@H]1NC(=O)[C@@H]2CCCN2C(=O)[C@@H]2CCCN2C(=O)[C@H](CC(C)(C)C)NC(=O)[C@H](CO)NC(=O)[C@H](CCCNC(=N)N)NC(=O)[C@H](CO)NC(=O)[C@@H](NC(=O)[C@@H](NC(=O)C(C)(C)CN)[C@@H](C)CC)CSSC(C)(C)[C@@H](C(=O)N[C@H](C(=O)N2CCC[C@H]2C(=O)N[C@@H](CC(=O)O)C(N)=O)[C@@H](C)CC)NC1=O` [Example 166, (3-Amino-2,2-dimethylpropionic acid)-IC+SRS-((tBu)A)-PPI-(Pen)+IPD-NH2], the IC50 in assay [2] is 4.2 nM; in assay [1] (setting [5]) it was 33.4 nM.
“N-[(5aS,11S,14S,17S,20S,23R,28R,31S,33aS)-31-[(2S)-butan-2-yl]-17-(3-carbamimidamidopropyl)-11-(2,2-dimethylpropyl)-14,20-bis(hydroxymethyl)-27,27-dimethyl-23-({N-[(morpholin-4-yl)acetyl]-L-isoleucyl}amino)-5,10,13,16,19,22,30,33-octaoxooctacosahydro-1H,5H,10H-dipyrrolo[2,1-j:2′,1′][1,2,5,8,11,14,17,20,23,26]dithiaoctaazacyclononacosine-28-carbonyl]-L-isoleucyl-L-prolyl-L-alpha-asparagine [Example 283]”: the IC50 in assay [1] (setting [5]) is 69.8 nM.
As to `CC[C@H](C)[C@H](NC(=O)CNC)C(=O)N[C@H]1CSSC(C)(C)[C@@H](C(=O)N[C@H](C(=O)N2CCC[C@H]2C(N)=O)[C@@H](C)CC)NC(=O)[C@H]([C@@H](C)CC)NC(=O)[C@@H]2C[C@@H]3CCCC[C@@H]3N2C(=O)[C@@H]2CCCN2C(=O)[C@H](CC(C)C)NC(=O)[C@H](CO)NC(=O)[C@H](CCCNC(=N)N)NC(=O)[C@H](CO)NC1=O` [Example 376] (H-[Sar]ICSRSLP[Oic]I[Pen]IP-NH2; disulfide 3-11), the IC50 in assay [2] is 1.1 nM; in assay [1] (setting [5]) it was 13.8 nM; in assay [3] it was 35 nM.
For `CC[C@H](C)[C@H](NC(=O)[C@H](C)N)C(=O)N[C@H]1CSSC(C)(C)[C@@H](C(=O)N[C@H](C(=O)N2CCC[C@H]2C(=O)N[C@@H](CC(=O)O)C(=O)O)[C@@H](C)CC)NC(=O)[C@H]([C@@H](C)CC)NC(=O)[C@@H]2C[C@@H]3CCCC[C@@H]3N2C(=O)[C@@H]2C=CCN2C(=O)[C@H](CC(C)C)NC(=O)[C@H](CO)NC(=O)[C@H](CCCNC(=N)N)NC(=O)[C@H](CO)NC1=O` [Example 237] (H-AICSRSL[ΔPro][Oic]I[Pen]IPD-OH; disulfide 3-11), in that order: 9.3 nM, 14.7 nM and 64 nM.
For “(2-Hydroxyacetyl)-IC+SRS-((tBu)A)-PPI-(Pen)+IPD-NH2 [Example 300]”, the IC50 in assay [1] (setting [5]) was 59.8 nM.

The record behind these values is US11667675B2, “MASP inhibitory compounds and uses thereof” (Bayer Aktiengesellschaft, priority 2019, dated 2023).
